This is an account of results in paper PMC10052609, “Cholinesterase Inhibitors from an Endophytic Fungus Aspergillus niveus Fv-er401: Metabolomics, Isolation and Molecular Docking” (Molecules, 2023).

Several values for one entry are separate records, joined by “and”; a condition that tells them apart may be missing. Equal entries are not always repeated. Where two headings read alike, the source gives them in different places.

For data set [1], the target named is AChE (Homo sapiens, UniProt P22303). As to the kind of experiment: Acetylcholinesterase inhibitory activity (Ellman's method). The following applies: acetylthiocholine substrate, 25 °C, read at 405 nm. The data set is classed as biochemical. The protocol: (§1) In total, 170 μL of Tris–HCl buffer (200 mM, pH 7.5) was added, then 20 μL of the tested compounds at different concentrations ([…]), and finally 20 μL of the enzyme solution (0.1 U mL1). […] In BChE and AChE assays, butyrylthiocholine iodide and acetylthiocholine were used as substrates, and DTNB was used as an indicator. MeOH was used to dissolve the tested samples. […] Blank tests were performed by replacing the enzyme (20 μL) with buffer and recording the absorbances.
(§2) Percentage inhibition was calculated as follows: %Inhibition=Reading B−Reading A/Reading B×100

The target in data set [2] is BuChE (Homo sapiens, UniProt P06276). As to the kind of experiment: Butyrylcholinesterase inhibitory activity (Ellman's method). The format is biochemical. The following applies: butyrylthiocholine iodide substrate, 25 °C, read at 405 nm. The method, then: as §1, §2
Data set [3] concerns NCI-H460. The following applies: NCI-H460 cell line; read-out: Cytotoxic activity IC50; cited from earlier work.
Data set [4] has as its system MCF-7. The following applies: MCF-7 cell line; read-out: Cytotoxic activity IC50; cited from earlier work.
Data set [5] deals with SF-268. The following applies: SF-268 cell line; read-out: Cytotoxic activity IC50; cited from earlier work.
Data set [6] has as its system MIA Pa Ca-2. The following applies: MIA Pa Ca-2 cell line; read-out: Cytotoxic activity IC50; cited from earlier work.
Data set [7] deals with glutamate-induced excitotoxicity. The following applies: low doses; cited from earlier work.

Sequence of BuChE (P06276 29-602): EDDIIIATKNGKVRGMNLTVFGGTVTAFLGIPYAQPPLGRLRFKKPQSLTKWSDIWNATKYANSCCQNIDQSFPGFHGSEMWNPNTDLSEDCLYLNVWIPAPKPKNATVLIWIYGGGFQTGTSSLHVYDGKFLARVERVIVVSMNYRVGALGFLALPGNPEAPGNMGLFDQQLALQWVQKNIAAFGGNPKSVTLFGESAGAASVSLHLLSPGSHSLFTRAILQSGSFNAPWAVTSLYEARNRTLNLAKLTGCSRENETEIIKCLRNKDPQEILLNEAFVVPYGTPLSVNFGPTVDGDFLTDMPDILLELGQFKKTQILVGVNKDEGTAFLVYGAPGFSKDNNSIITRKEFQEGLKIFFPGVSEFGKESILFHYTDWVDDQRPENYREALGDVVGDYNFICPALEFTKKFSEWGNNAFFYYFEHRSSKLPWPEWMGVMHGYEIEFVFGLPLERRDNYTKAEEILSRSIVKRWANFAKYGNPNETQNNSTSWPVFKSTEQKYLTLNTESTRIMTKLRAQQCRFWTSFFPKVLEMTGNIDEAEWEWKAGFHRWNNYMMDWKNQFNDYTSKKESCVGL
Sequence of AChE (P22303 32-614): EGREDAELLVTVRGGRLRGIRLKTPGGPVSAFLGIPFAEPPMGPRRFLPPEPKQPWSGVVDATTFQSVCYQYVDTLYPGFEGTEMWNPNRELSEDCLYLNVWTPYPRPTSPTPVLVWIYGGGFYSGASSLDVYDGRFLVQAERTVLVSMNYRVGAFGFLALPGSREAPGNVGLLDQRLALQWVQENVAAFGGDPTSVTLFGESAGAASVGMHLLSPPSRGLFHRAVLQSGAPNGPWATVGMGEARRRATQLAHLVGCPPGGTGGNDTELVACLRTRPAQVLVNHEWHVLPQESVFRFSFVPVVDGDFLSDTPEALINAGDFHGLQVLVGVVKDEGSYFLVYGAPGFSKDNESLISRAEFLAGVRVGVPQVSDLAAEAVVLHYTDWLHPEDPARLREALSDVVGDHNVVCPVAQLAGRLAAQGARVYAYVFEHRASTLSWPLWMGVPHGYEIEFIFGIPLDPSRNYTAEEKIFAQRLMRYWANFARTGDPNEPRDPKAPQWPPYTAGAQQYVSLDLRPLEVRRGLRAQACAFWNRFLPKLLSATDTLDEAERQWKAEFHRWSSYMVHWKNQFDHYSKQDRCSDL

Take `C=CC(C)(C)c1[nH]c2ccccc2c1C1=C(O)C(=O)C(c2c[nH]c3ccccc23)=C(CC=C(C)C)C1=O` [Terrequinone A]: the IC50 in data set [1] (Ellman's method, read-out: Acetylcholine Esterase IC50 (converted)) is 22.6 µM; in data set [2] (Ellman's method, read-out: Butyryl Choline Esterase IC50 (converted)) it was 31.9 µM; in data set [3], 5.6 µM; in data set [4], 6.8 µM; in data set [5], 13.9 µM; in data set [6], 5.4 µM.
On to `CC1=C2C(=CO[C@H](C)[C@H]2C)C(O)=C(C(=O)O)C1=O` [Citrinin], for which the IC50 is 20.2 µM in data set [1] (Acetylcholine Esterase IC50, Ellman's method); 32 µM and 30.1 µM in data set [2] (Butyryl Choline Esterase IC50, Ellman's method). In addition, the “Neuroprotective activity against glutamate-induced excitotoxicity” value in data set [7] was “potential neuroprotective activity”.
